# Assays:
# Type in all cases: cell-based
# [1] = tested on: Shh-mediated pathway activation (Gli-reporter in C3H10T1/2 cells); assay: Gli-Luc Reporter Assay for Hh Pathway Inhibition; settings: C3H 10T1/2, recombinant mouse Shh protein 2 μg/mL, 48 hours, firefly luciferase normalized to Renilla, read-out: EC50 to block Shh-mediated pathway activation
# Protocol: Gli-Luc Reporter Assay for Hh Pathway Inhibition
# Mouse embryonic mesoderm fibroblasts C3H10T1/2 cells (obtained from American Type Culture Collection, ATCC, Manassas, Va.) are cultured in MEM-α medium (Gibco/Invitrogen, Carlsbad, Calif.) supplemented with 10% heat inactivated FBS (Gibco/Invitrogen, Carlsbad, Calif.), 50 unit/mL penicillin and 50 μg/mL of streptomycin (Gibco/Invitrogen, Carlsbad, Calif.) at 37° C. with 5% CO2 in air atmosphere. C3H10T1/2 cells in a 10 cm dish are co-transfected with 8 μg of Gli-reporter plasmid and 2 μg of Renilla luciferase control reporter (Promega, Madison, Wis.) with 30 μL of FuGENE6 (Roche Diagnostics, Indianapolis, Ind.) following the manufacturer's protocol. After 12 hours, cells are trypsinized and replated into a 96-well plate with MEM-α medium supplemented with 2% FBS, and treated with recombinant mouse Shh protein (expressed in E. coli, 2 μg/mL) and different concentrations of a compound of the invention. After 48 hours, the firefly luciferase and Renilla luciferase activities are assayed with the Dual-Glo™ Luciferase Assay System (Promega, Madison, Wis.). Firefly luciferase activity is normalized to Renilla luciferase activity. The EC50 is measured when the effect of the compound reduces the luminescence signal by 50%.
# [2] = tested on: Daoy cells (medulloblastoma cell line); assay: Cyto-toxicity Assay (Cell Titer-Glo cell viability), Daoy cells; settings: Homo sapiens, 48 h, 2 days, luminescent cell viability, read-out: EC50 against the proliferation of Daoy cells
# Protocol: (§1) A cytotoxicity assay is performed to compare the effects of a compound of the invention on medulloblastoma cells (Daoy cells), basal cell carcinoma cells (TE354.T cells) and control cells (human normal fibroblast) according to the following procedure:
# Daoy cells (medulloblastoma cell line) are purchased from ATCC, and cultured in Minimum essential medium (Eagle) with 2 mM L-glutamine and Earle's BSS adjusted to contain 1.5 g/L sodium bicarbonate, 0.1 mM non-essential amino acids, and 1.0 mM sodium pyruvate and 10% FBS at 37° C. with 5% CO2 in an air atmosphere.
# (§2) Each of the above cell lines are independently seeded into 96-well plates and cultured to a density of 5,000-10,000 cells/well. A compound of the invention, at different concentrations, is added into the cell cultures. After 2 days, the cell viability is evaluated with Cell Titer-Glo Luminescent Cell Viability Assay Kit (Promega) following the manufacturer's protocol. The cell viability is directly measured by luminescent signaling and EC50s are measured when the signal is inhibited 50%.
# [3] = tested on: normal human dermal fibroblast cells; assay: Cyto-toxicity Assay (Cell Titer-Glo cell viability), control cells; settings: 2 days, luminescent cell viability
# Protocol: as §1
# Normal human dermal fibroblast cells (Clonetics) are cultured in Fibroblast Growth Medium (Clonetics).
# as §2
structure (smiles),measurement,setting,value
"CCOc1ccc(Nc2nc(-c3c(C)nc4ccccn34)cs2)cc1 [Example 1, (4-Ethoxy-phenyl)-[4-(2-methyl-imidazo[1,2-a]pyridin-3-yl)-thiazol-2-yl]-amine]",EC50,[1],30 nM
same,EC50,[2],30 nM
same,toxic effect on normal human dermal fibroblast cells (control),[3],no toxic effect
